For assay [1], the target named is T1, c-KIT D816V kinase (Homo sapiens, UniProt P10721, D816V).
T1 construct: residues T544-V976 with N-terminal GST fusion; purchased deCODE Biostructures
The experiment in a line: c-KIT D816V kinase Assay. Format: biochemical. As to conditions: enzymatic assay, ATP 200 uM. The essentials: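 Coupled assay in which NADH oxidation was tracked as decreasing absorbance at 340 nm, continuously for 5 hours at 30 °C after adding serially diluted compound. Enzyme: cKit residues T544-V976 with N-terminal tag, GST fusion and TEV cleavage site.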

Assay [2] deals with T2, c-KIT VVDV kinase (Homo sapiens, UniProt P10721, D816V/DEL559-560).
T2 construct: This construct contains residues T544-V976 of cKit; GST (N); TEV cleavage site (internal); purchased deCODE Biostructures
The experiment in a line: cKIT-VVDV kinase Assay. The assay is classed as biochemical. Particulars: enzymatic assay; V559+V560 deletions and D816V mutation. The procedure: In this assay, the oxidation of NADH (measured by decrease in absorbance at 340 nm) was continuously monitored spectrophotometrically. […] The inhibition reaction was started by mixing serial diluted test compound with the above reaction mixture. The absorption at 340 nm was monitored continuously for 5 hours at 30 °C on Synergy 2 plate reader (BioTech). […] The protein construct was prepared by deCODE Biostructures using procedures known in the art. […] This construct is identical to Seq ID no.

Assay [3] concerns the target T3, c-KIT T670I kinase (Homo sapiens, UniProt P10721, T670I).
T3 construct: The construct contains residues T544-V976 of cKit; GST (N); TEV cleavage site (internal); purchased deCODE Biostructures
The experiment in a line: c-KIT T670I kinase assay. Format: biochemical. Particulars: enzymatic assay. The essentials:
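Coupled spectrophotometric assay following NADH oxidation as absorbance decrease at 340 nm, monitored continuously for 5 h at 30 °C after adding serially diluted compound. Enzyme is a cKit construct with N-terminal tag, GST fusion and TEV site, carrying the T670I mutation.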

The target in assay [4] is T4, c-KIT V654A kinase (Homo sapiens, UniProt P10721, V654A).
T4 construct: residues T544-V976 with N-terminal GST fusion; purchased deCODE Biostructures
The experiment in a line: c-KIT V654A Kinase Assay. Format: biochemical. As to conditions: enzymatic assay, ATP 200 µM. Summed up: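 Construct: cKIT residues T544–V976 with N-terminal tag, GST fusion and TEV site. Reaction started by adding serially diluted compound to the enzyme mixture; NADH oxidation, coupled to kinase turnover, followed as the decrease in A340 for 6 h at 30 °C.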

In assay [5] the target is T5, c-KIT D816H kinase (Homo sapiens, UniProt P10721, D816H).
T5 construct: The construct contains residues T544-V976 of cKit; GST (N); TEV cleavage site (internal); purchased deCODE Biostructures
The experiment in a line: c-KIT D816H Kinase Assay. As to conditions: enzymatic assay, ATP 200 µM. The assay is classed as biochemical. The essentials: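 Coupled spectrophotometric assay following NADH oxidation as absorbance decrease at 340 nm, monitored continuously for 6 hours at 30 °C after adding serially diluted compound. Enzyme: mutant cKit construct with N-terminal tag, GST fusion and TEV cleavage site.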

For assay [6], the system named is Phospho-KIT (Tyr719). Nature of the assay: GIST430 KIT Western Blot. As to conditions: GIST430 cells, 4 hours, serum-free medium; read-out: pKIT suppression by western blot analysi GIST430. Format: cell-based. The procedure: (§1) GIST48, GIST430, and GIST882 cells were obtained from J. Fletcher (Brigham and Women's Hospital, Boston, MA). GIST T1 cells were obtained from B. Rubin (Cleveland Clinic, Cleveland, OH) and Professor Takahiro Taguchi (Kochi Medical School, Nankoku, Kochi, Japan). […] GIST430 cells were grown in Ham's F10 medium supplemented with 15% characterized fetal bovine serum (Invitrogen, Carlsbad, CA), 30 mg/L bovine pituitary extract (BD Biosciences, San Jose, CA), 0.5% Mito+ serum extender (BD Biosciences, San Jose, CA), 1 unit/mL penicillin G, 1 µg/ml streptomycin, and 0.29 mg/mL L-glutamine at 37 °C, 5%CO2, 95% humidity. GIST T1 cells were grown in DMEM medium supplemented with 10% characterized fetal bovine serum (Invitrogen, Carlsbad, CA), 1 unit/mL penicillin G, 1 µg/ml streptomycin, and 0.29 mg/mL L-glutamine at 37 °C, 5% CO2, and 95% humidity.
(§2) One hundred fifty thousand cells were added per well in a 24-well tissue-culture treated plate. […] Medium was aspirated, cells were washed with PBS, and serum-free Ham's F10 medium was added. […] Cells were washed with PBS, then lysed. Cell lysates were separated by SDS-PAGE and transferred to PVDF. Phospho-KIT (Tyr719) was detected using an antibody from Cell Signaling Technology (Beverly, MA), ECL Plus detection reagent (GE Healthcare, Piscataway, NJ) and a Molecular Devices Storm 840 phosphorimager in fluorescence mode. Blots were stripped and probed for total KIT using an antibody from Santa Cruz Biotech (Santa Cruz, CA). IC50 values were calculated using Prism software (Graphpad, San Diego, CA).
In general terms: Immunoblotting shows a protein as a band on a membrane.

In assay [7] the test system is Phospho-KIT (Tyr719). Nature of the assay: GIST48 KIT Western Blot. Format: cell-based. As to conditions: GIST48 cells, 4 hours, serum-free medium; read-out: pKIT suppression by western blot analysi GIST48. The method, then: as §1
as §2, with “Two” for “One”, “RPMI1640” for “Ham's F10”

For assay [8], the target named is c-KIT kinase (Homo sapiens, UniProt P10721). Nature of the assay: c-KIT kinase Assay. Format: biochemical. The arrangement: cKIT residues T544-V976; GST (N); TEV cleavage site (internal); purchased deCODE Biostructures. As to conditions: enzymatic assay, ATP 200 µM; read-out: KIT (wt) IC50. Summed up: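 Activity of wild-type human c-KIT kinase was followed as NADH oxidation, read as falling absorbance at 340 nm on a Synergy 2 plate reader (BioTeK) for 2 hours at 30 °C. Rates from the 0 to 1 h window were compared with an uninhibited control to give percent inhibition. IC50 values were fitted in GraphPad Prism across a range of inhibitor concentrations.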
Chain of c-KIT kinase (P10721 544-976): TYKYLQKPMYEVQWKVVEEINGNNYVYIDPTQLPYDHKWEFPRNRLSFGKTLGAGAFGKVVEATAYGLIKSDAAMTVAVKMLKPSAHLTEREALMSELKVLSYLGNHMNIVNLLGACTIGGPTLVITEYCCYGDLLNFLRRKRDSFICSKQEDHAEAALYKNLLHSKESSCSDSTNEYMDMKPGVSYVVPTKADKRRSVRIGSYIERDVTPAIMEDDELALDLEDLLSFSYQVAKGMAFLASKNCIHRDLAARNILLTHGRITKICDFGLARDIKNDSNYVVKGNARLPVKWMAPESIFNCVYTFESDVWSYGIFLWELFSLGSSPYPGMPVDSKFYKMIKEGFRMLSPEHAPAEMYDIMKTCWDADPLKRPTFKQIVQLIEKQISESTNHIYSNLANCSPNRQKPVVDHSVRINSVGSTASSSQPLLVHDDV

T3 sequence (P10721 544-976 T670I): as the sequence (P10721 544-976) above, with T127I counted along it
T5 sequence (P10721 544-976 D816H): as the sequence (P10721 544-976) above, with D273H counted along it
T1 sequence (P10721 544-976 D816V): as the sequence (P10721 544-976) above, with D273V counted along it
T4 sequence (P10721 544-976 V654A): as the sequence (P10721 544-976) above, with V111A counted along it
T2 sequence (P10721 with tags, fused parts or gaps DEL559-560/D816V): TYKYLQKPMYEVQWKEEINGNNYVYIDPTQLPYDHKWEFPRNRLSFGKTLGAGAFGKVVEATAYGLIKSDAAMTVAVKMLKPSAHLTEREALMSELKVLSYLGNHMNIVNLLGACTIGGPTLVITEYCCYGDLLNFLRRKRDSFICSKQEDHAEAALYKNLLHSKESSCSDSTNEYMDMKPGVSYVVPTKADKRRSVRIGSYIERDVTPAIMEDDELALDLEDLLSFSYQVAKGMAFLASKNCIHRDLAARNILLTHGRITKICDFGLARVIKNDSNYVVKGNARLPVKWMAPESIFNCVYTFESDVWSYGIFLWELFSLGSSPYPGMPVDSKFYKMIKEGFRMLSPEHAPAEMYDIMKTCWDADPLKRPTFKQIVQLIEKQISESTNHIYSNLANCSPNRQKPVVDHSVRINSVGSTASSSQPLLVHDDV

As for `CNc1cc2c(cn1)cc(-c1cc(NC(=O)Nc3cccc(F)c3F)c(F)cc1Cl)c(=O)n2C` [Example 10, 1-(4-chloro-2-fluoro-5-(1-methyl-7-(methylamino)-2-oxo-1,2-dihydro-1,6-naphthyridin-3-yl)phenyl)-3-(2,3-difluorophenyl)urea], the IC50 in assay [1], in assay [2] and in assay [3] was 10 to 100 nM each time.

Turning to `CCn1c(=O)c(-c2cc(NC(=O)Nc3ccccc3)c(F)cc2F)cc2cnc(NCCOC)cc21` [Example 36, 1-(5-(1-ethyl-7-(2-methoxyethylamino)-2-oxo-1,2-dihydro-1,6-naphthyridin-3-yl)-2,4-difluorophenyl)-3-phenylurea], the IC50 lay within 10 to 100 nM in assay [4]; 10 to 100 nM in assay [5]; 10 to 100 nM in assay [1]; 10 to 100 nM in assay [2]; 100 to 1000 nM in assay [3]; 100 to 1000 nM in assay [6]. Also, the IC50 in assay [7] was 100 to 1000 nM; in assay [8], less than 10 nM.

For the compound `CNc1cc2c(cn1)cc(-c1cc(NC(=O)Nc3cccc4ccccc34)c(F)cc1Cl)c(=O)n2C` [Example 8, 1-(4-chloro-2-fluoro-5-(1-methyl-7-(methylamino)-2-oxo-1,2-dihydro-1,6-naphthyridin-3-yl)phenyl)-3-(naphthalen-1-yl)urea], the IC50 in assay [1] was in the range of 10 to 100 nM; in assay [2] it was 100 to 1000 nM; in assay [3], 10 to 100 nM.

As to `CCn1c(=O)c(-c2ccc(F)c(NC(=O)Nc3cccc4ccccc34)c2)cc2cnc(NC)cc21` [Example 2, 1-(5-(1-ethyl-7-(methylamino)-2-oxo-1,2-dihydro-1,6-naphthyridin-3-yl)-2-fluorophenyl)-3-(naphthalen-1-yl)urea], the IC50 is 100 to 1000 nM in assay [1], 100 to 1000 nM in assay [2] and less than 10 nM in assay [3].

On to `CNc1cc2c(cn1)cc(-c1cc(NC(=O)Nc3ccccc3)c(F)cc1Cl)c(=O)n2C` [Example 7, 1-(4-chloro-2-fluoro-5-(1-methyl-7-(methylamino)-2-oxo-1,2-dihydro-1,6-naphthyridin-3-yl)phenyl)-3-phenylurea], for which the IC50 in assay [1], in assay [2] and in assay [3] was 10 to 100 nM each time.

On to `CNc1cc2c(cn1)cc(-c1ccc(F)c(NC(=O)Nc3ccccc3)c1)c(=O)n2C(C)C` [Example 5, 1-(2-fluoro-5-(1-isopropyl-7-(methylamino)-2-oxo-1,2-dihydro-1,6-naphthyridin-3-yl)phenyl)-3-phenylurea], for which the IC50 in assay [1] and in assay [2] was 100 to 1000 nM in each case.

As to `CCn1c(=O)c(-c2cc(NC(=O)Nc3cccc(F)c3)c(F)cc2C)cc2cnc(NC3CC3)cc21` [Example 45, 1-(5-(7-(cyclopropylamino)-1-ethyl-2-oxo-1,2-dihydro-1,6-naphthyridin-3-yl)-2-fluoro-4-methylphenyl)-3-(3-fluorophenyl)urea], the IC50 in assay [4] was 10 to 100 nM; in assay [5], 10 to 100 nM; in assay [1] it was 10 to 100 nM; in assay [2] it was greater than 1000 nM; in assay [3], 10 to 100 nM; in assay [8] it was less than 10 nM.

Turning to `CCn1c(=O)c(-c2cc(NC(=O)Nc3csc4ccccc34)c(F)cc2F)cc2cnc(NC)cc21` [Example 19, 1-(benzo[b]thiophen-3-yl)-3-(5-(1-ethyl-7-(methylamino)-2-oxo-1,2-dihydro-1,6-naphthyridin-3-yl)-2,4-difluorophenyl)urea], the values for the IC50 in assay [1], in assay [2] and in assay [8] were less than 10 nM, 10 to 100 nM and less than 10 nM, respectively.

As for `CCn1c(=O)c(-c2cc(NC(=O)Nc3ccccc3)ccc2Cl)cc2cnc(NC)cc21` [Example 33, 1-(4-chloro-3-(1-ethyl-7-(methylamino)-2-oxo-1,2-dihydro-1,6-naphthyridin-3-yl)phenyl)-3-phenylurea], the IC50 is less than 10 nM in assay [4]; 10 to 100 nM in assay [5]; 10 to 100 nM in assay [1]; 100 to 1000 nM in assay [2]; 100 to 1000 nM in assay [3]; 10 to 100 nM in assay [6]. Besides, in assay [8], the IC50 is less than 10 nM.

Take `CNc1cc2c(cn1)cc(-c1cc(NC(=O)Nc3cccc(C#N)c3)c(F)cc1Cl)c(=O)n2C` [Example 9, 1-(4-chloro-2-fluoro-5-(1-methyl-7-(methylamino)-2-oxo-1,2-dihydro-1,6-naphthyridin-3-yl)phenyl)-3-(3-cyanophenyl)urea]: the IC50 is 10 to 100 nM in assay [1], 10 to 100 nM in assay [2], 10 to 100 nM in assay [3] and less than 10 nM in assay [8].

On to `CCn1c(=O)c(-c2cc(NC(=O)Nc3cccc(C#N)c3)c(F)cc2F)cc2cnc(NC)cc21` [Example 18, 1-(3-cyanophenyl)-3-(5-(1-ethyl-7-(methylamino)-2-oxo-1,2-dihydro-1,6-naphthyridin-3-yl)-2,4-difluorophenyl)urea], for which the IC50 is 100 to 1000 nM in assay [1], 10 to 100 nM in assay [2], 10 to 100 nM in assay [3] and less than 10 nM in assay [8].

With `CNc1cc2c(cn1)cc(-c1cc(NC(=O)Nc3csc4ccccc34)c(F)cc1C)c(=O)n2C` [Example 13, 1-(benzo[b]thiophen-3-yl)-3-(2-fluoro-4-methyl-5-(1-methyl-7-(methylamino)-2-oxo-1,2-dihydro-1,6-naphthyridin-3-yl)phenyl)urea], the IC50 was 10 to 100 nM in assay [1], less than 10 nM in assay [2] and 10 to 100 nM in assay [3].

Consider `CCn1c(=O)c(-c2c(Cl)ccc(NC(=O)Nc3ccccc3)c2F)cc2cnc(NC)cc21` [Example 26, 1-(4-chloro-3-(1-ethyl-7-(methylamino)-2-oxo-1,2-dihydro-1,6-naphthyridin-3-yl)-2-fluorophenyl)-3-phenylurea], for which the results for the IC50 in assay [1], in assay [2] and in assay [8] were greater than 1000 nM, greater than 1000 nM and 10 to 100 nM, respectively.

`CCn1c(=O)c(-c2ccc(F)c(NC(=O)Nc3cccc(C#N)c3)c2)cc2cnc(NC)cc21` [Example 12, 1-(3-cyanophenyl)-3-(5-(1-ethyl-7-(methylamino)-2-oxo-1,2-dihydro-1,6-naphthyridin-3-yl)-2-fluorophenyl)urea]: the IC50 was greater than 1000 nM in assay [1] and 100 to 1000 nM in assay [2].
